Reference: ChEMBL document CHEMBL1255533, “PKI-179: an orally efficacious dual phosphatidylinositol-3-kinase (PI3K)/mammalian target of rapamycin (mTOR) inhibitor” (Bioorg Med Chem Lett, 2010)
Active and inactive are the calls of the source. The rule behind the calls is not given here.

How the values were obtained:
MDA-MB-361 [1] = test: Antiproliferative activity against human MDA-MB-361 cells; assay type: functional, cell-based
[2] = biological target: Phosphatidylinositol 4,5-bisphosphate 3-kinase catalytic subunit alpha isoform (Homo sapiens, UniProt P42336); test: Inhibition of PI3K-alpha
Chain of Phosphatidylinositol 4,5-bisphosphate 3-kinase catalytic subunit alpha isoform (Homo sapiens, UniProt P42336) (P42336 whole entry, canonical isoform): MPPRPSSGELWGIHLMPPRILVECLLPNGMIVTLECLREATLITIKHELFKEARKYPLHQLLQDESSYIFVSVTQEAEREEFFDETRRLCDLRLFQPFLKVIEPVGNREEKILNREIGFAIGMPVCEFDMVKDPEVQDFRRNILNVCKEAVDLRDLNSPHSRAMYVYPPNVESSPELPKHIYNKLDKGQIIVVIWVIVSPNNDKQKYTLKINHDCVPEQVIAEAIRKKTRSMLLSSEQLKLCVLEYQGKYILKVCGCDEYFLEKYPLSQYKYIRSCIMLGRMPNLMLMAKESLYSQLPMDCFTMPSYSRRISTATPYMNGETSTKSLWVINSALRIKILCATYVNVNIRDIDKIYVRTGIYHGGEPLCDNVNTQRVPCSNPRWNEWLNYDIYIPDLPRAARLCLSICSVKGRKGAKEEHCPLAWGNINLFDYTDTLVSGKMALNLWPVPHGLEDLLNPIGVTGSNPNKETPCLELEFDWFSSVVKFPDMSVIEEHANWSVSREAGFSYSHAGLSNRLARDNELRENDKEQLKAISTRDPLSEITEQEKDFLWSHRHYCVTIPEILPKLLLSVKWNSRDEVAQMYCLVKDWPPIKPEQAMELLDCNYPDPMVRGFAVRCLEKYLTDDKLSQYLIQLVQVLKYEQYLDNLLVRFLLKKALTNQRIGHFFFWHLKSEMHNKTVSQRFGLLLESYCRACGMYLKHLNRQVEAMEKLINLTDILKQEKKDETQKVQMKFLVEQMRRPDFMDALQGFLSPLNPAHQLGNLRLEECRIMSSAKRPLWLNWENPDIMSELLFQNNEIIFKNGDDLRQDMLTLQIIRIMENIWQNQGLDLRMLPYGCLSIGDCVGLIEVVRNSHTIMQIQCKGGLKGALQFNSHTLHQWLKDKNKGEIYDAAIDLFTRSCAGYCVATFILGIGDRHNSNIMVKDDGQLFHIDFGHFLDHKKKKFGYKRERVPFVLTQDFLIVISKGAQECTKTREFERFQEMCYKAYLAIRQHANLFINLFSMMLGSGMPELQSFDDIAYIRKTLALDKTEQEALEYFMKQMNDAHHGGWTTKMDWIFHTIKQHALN

PC-3 = test: Antiproliferative activity against human PC3 cells; assay type: functional, cell-based
[3] = biological target: Serine/threonine-protein kinase mTOR (Homo sapiens, UniProt P42345); test: Inhibition of mTOR
[4] = biological target: Phosphatidylinositol 4,5-bisphosphate 3-kinase catalytic subunit gamma isoform (Homo sapiens, UniProt P48736); test: Inhibition of PI3K-gamma
Chain of Phosphatidylinositol 4,5-bisphosphate 3-kinase catalytic subunit gamma isoform (P48736 whole entry, canonical isoform): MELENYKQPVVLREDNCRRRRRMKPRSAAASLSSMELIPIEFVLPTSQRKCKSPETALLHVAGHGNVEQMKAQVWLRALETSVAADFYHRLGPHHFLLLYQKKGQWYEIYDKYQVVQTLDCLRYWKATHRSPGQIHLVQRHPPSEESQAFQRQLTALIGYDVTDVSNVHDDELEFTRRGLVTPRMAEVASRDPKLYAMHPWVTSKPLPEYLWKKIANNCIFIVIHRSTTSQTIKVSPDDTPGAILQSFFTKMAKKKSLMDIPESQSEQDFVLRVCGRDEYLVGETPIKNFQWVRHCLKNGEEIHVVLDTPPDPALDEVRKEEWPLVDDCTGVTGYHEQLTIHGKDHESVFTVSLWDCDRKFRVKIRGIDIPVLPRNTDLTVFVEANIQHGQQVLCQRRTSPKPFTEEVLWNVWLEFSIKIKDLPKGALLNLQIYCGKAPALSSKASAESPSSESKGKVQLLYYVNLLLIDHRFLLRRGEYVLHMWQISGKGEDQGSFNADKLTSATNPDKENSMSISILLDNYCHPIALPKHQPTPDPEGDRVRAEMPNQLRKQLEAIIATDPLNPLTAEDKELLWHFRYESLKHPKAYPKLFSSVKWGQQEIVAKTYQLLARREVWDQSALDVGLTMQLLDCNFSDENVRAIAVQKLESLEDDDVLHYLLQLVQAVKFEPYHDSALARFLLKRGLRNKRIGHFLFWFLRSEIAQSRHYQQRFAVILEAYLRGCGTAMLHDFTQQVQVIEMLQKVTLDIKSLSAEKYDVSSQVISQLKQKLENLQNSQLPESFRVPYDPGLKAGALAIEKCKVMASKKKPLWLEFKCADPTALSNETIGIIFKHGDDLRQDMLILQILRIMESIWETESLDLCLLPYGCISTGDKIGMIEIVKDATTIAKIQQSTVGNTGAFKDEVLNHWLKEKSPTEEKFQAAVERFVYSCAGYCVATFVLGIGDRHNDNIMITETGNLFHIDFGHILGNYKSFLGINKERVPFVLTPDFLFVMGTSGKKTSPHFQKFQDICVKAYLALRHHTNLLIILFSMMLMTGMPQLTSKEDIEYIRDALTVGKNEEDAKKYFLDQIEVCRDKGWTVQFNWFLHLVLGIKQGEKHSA

[5] = Inhibition of PI3K-alpha […] mutant
Cytochrome P450 2C8 = biological target: T1, Cytochrome P450 2C8 (Homo sapiens, UniProt P10632); test: Inhibition of CYP2C8; assay type: ADME
T1 sequence (P10632 whole entry): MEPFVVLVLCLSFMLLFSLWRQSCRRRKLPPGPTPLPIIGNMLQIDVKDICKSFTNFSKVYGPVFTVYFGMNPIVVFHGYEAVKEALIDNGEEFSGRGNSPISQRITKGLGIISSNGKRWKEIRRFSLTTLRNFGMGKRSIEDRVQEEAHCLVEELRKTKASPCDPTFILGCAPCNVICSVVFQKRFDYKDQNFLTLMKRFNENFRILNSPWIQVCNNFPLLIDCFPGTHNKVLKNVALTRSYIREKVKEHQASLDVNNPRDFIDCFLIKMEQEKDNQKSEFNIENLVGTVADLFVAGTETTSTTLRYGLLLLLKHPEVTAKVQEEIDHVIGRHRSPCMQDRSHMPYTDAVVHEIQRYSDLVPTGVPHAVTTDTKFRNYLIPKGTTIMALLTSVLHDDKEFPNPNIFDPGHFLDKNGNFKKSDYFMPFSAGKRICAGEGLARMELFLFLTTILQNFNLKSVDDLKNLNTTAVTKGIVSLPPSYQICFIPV

Cytochrome P450 2C19 = Cytochrome P450 2C19 (Homo sapiens, UniProt P33261); test: Inhibition of CYP2C19; assay type: ADME
Chain of Cytochrome P450 2C19 (P33261 whole entry): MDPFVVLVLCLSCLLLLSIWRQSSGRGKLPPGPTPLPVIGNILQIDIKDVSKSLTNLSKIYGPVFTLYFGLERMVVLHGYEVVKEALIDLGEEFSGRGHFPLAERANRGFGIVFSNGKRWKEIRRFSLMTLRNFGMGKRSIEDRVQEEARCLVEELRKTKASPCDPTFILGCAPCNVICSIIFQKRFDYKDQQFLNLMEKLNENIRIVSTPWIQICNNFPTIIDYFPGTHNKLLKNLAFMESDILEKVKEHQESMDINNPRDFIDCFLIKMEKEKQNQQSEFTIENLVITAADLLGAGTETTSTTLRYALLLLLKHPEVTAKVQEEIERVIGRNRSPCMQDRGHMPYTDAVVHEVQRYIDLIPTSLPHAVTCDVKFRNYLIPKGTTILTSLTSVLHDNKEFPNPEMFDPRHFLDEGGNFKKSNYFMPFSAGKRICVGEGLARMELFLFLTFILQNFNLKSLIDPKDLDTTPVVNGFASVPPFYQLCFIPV

Mus musculus [6] = test: In vivo inhibition of mTORC1 in mouse bearing human MDA-MB-361 cells assessed as inhibition of S6 phosphorylation at 50 mg/kg, po; assay type: functional, organism-based; set-up: dose 50 mg/kg
Cytochrome P450 3A4 = Cytochrome P450 3A4 (Homo sapiens, UniProt P08684); test: Inhibition of CYP3A4; assay type: ADME
Chain of Cytochrome P450 3A4 (P08684 whole entry, canonical isoform): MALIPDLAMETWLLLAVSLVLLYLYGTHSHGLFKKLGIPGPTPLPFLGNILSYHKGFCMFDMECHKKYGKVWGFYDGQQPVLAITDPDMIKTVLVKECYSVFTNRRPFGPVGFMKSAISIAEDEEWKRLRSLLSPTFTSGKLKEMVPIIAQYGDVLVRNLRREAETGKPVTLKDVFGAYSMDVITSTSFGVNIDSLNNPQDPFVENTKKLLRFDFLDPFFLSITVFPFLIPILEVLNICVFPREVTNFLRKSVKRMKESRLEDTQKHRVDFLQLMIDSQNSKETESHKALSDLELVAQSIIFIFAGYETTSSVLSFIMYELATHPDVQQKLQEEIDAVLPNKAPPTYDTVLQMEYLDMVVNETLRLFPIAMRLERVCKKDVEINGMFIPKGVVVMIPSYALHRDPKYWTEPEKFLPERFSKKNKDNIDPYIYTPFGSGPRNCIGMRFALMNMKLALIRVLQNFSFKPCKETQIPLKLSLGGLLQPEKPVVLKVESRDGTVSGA

[7] = biological target: T2, Phosphatidylinositol 4,5-bisphosphate 3-kinase catalytic subunit delta isoform (Homo sapiens, UniProt O00329); test: Inhibition of PI3K-delta
T2 sequence (O00329 whole entry): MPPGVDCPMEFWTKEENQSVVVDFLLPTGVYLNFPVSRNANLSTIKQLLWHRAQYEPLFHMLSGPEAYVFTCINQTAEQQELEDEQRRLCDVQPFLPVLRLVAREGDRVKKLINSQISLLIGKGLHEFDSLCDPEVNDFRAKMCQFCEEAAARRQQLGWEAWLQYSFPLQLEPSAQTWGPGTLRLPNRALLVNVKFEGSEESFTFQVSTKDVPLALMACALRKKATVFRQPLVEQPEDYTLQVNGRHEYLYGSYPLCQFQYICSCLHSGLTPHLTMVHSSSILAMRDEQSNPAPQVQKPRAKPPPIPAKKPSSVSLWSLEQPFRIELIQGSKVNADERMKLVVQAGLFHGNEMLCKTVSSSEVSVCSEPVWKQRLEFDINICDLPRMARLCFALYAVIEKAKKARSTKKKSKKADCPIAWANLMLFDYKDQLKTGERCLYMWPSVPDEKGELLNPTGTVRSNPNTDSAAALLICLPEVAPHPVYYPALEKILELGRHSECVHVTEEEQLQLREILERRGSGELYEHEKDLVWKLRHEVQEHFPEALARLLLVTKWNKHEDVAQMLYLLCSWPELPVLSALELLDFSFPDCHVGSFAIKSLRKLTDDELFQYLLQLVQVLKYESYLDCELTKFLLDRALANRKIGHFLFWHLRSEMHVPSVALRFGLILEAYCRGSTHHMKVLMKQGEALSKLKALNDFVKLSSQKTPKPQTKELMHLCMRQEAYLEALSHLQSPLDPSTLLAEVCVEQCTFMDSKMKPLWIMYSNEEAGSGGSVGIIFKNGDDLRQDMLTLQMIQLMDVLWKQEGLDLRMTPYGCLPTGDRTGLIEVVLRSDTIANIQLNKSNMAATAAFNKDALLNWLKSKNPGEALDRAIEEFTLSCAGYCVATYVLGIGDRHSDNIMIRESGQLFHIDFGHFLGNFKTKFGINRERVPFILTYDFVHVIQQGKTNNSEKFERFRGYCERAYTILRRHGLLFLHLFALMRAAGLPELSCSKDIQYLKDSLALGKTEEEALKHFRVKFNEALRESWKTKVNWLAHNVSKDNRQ

Mus musculus [8] = test: Toxicity in mouse assessed as weight loss at 10 mg/kg, po qd; assay type: organism-based; set-up: dose 10 mg/kg, route oral; settings: in vivo
Cytochrome P450 2A6 = biological target: T3, Cytochrome P450 2A6 (Homo sapiens, UniProt P11509); test: Inhibition of CYP2A6; assay type: ADME
T3 sequence (P11509 whole entry): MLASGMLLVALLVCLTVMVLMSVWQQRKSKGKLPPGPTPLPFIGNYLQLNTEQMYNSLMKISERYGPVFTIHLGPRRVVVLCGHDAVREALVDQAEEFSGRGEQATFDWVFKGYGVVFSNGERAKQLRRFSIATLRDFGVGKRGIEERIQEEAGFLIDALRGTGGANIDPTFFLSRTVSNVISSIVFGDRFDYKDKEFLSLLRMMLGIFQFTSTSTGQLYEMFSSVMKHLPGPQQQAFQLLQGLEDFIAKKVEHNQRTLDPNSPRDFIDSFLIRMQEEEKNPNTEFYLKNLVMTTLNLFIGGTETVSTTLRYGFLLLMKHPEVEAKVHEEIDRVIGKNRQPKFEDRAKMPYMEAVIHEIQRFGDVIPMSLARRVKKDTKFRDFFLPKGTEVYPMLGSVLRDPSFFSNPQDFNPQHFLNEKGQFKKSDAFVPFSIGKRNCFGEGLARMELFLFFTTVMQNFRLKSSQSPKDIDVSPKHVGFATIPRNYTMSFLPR

[9] = biological target: Phosphatidylinositol 4,5-bisphosphate 3-kinase catalytic subunit alpha isoform (Homo sapiens, UniProt P42336, E545K); test: Inhibition of PI3K-alpha E545K mutant
Chain of Phosphatidylinositol 4,5-bisphosphate 3-kinase catalytic subunit alpha isoform (Homo sapiens, UniProt P42336, E545K) (P42336 whole entry E545K, canonical isoform): as the sequence (P42336 whole entry, canonical isoform) above, with E545K counted along it

MDA-MB-361 [10] = test: Induction of apoptosis in human MDA-MB-361 cells assessed as PARP cleavage after 4 hrs; assay type: functional, cell-based
[11] = biological target: Phosphatidylinositol 4,5-bisphosphate 3-kinase catalytic subunit beta isoform (Homo sapiens, UniProt P42338); test: Inhibition of PI3K-beta
Chain of Phosphatidylinositol 4,5-bisphosphate 3-kinase catalytic subunit beta isoform (P42338 whole entry, canonical isoform): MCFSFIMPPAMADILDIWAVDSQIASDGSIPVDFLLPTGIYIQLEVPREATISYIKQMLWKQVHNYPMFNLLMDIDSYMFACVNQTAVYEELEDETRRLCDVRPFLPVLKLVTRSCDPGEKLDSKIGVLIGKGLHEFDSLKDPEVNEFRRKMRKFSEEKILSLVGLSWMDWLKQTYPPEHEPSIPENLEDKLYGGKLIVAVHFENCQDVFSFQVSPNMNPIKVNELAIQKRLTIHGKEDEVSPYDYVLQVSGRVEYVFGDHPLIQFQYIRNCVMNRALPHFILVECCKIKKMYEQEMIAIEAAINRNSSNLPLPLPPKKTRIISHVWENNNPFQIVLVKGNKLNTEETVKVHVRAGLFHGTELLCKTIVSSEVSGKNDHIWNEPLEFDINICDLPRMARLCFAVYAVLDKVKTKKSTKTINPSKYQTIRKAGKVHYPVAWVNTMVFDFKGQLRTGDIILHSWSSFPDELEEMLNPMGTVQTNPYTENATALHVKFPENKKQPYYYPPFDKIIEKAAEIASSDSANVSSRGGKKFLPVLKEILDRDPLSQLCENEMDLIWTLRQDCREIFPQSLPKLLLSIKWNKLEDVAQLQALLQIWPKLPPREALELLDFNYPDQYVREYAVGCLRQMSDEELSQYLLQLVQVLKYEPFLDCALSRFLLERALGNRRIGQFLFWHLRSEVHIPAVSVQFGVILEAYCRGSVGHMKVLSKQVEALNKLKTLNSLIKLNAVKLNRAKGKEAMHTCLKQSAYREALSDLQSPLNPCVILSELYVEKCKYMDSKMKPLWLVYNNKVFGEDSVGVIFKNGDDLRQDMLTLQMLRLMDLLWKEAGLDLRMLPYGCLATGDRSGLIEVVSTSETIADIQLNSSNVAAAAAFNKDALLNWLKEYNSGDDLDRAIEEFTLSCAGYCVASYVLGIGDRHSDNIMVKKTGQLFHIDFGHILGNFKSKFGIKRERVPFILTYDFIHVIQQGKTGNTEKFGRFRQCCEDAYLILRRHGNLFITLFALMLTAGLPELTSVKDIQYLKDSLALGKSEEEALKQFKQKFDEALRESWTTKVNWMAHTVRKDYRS

Mus musculus [12] = test: In vivo inhibition of mTORC1 in mouse bearing human MDA-MB-361 cells assessed as inhibition of S6K phosphorylation at 50 mg/kg, po; assay type: functional, organism-based; set-up: dose 50 mg/kg
Cytochrome P450 2B6 = biological target: T4, Cytochrome P450 2B6 (Homo sapiens, UniProt P20813); test: Inhibition of CYP2B6; assay type: ADME
T4 sequence (P20813 whole entry): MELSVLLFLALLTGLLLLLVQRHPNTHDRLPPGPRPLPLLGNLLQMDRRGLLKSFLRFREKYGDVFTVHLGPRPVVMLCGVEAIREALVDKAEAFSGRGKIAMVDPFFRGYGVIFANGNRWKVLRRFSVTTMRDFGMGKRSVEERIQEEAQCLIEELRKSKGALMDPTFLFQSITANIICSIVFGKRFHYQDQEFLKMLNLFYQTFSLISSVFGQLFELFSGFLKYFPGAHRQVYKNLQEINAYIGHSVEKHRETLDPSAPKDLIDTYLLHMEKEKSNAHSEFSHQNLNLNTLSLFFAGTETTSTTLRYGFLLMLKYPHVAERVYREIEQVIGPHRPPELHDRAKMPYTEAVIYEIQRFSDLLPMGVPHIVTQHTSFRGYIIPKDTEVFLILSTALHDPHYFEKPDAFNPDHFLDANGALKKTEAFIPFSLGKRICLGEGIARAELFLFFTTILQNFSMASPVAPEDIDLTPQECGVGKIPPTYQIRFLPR

MDA-MB-361 [13] = test: Antitumor activity against human MDA-MB-361 cells xenografted in mouse assessed as inhibition tumor growth at 10 mg/kg, po qd; assay type: functional, organism-based; set-up: dose 10 mg/kg
Cytochrome P450 1A2 = biological target: T5, Cytochrome P450 1A2 (Homo sapiens, UniProt P05177); test: Inhibition of CYP1A2; assay type: ADME
T5 sequence (P05177 whole entry): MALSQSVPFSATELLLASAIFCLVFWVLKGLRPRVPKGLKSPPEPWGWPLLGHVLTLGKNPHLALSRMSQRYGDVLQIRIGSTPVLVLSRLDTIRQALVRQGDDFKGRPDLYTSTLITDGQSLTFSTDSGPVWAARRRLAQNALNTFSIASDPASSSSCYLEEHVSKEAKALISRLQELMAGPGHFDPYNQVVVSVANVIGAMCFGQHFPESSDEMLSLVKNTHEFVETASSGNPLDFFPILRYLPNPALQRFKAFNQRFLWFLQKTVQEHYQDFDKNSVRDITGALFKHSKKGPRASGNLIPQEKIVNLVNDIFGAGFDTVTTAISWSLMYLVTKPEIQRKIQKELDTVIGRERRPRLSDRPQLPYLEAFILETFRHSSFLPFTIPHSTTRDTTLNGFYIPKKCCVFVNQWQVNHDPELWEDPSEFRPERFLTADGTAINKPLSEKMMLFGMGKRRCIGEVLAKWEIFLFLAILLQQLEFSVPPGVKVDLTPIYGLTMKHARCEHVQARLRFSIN

Cytochrome P450 2D6 = Cytochrome P450 2D6 (Homo sapiens, UniProt P10635); test: Inhibition of CYP2D6; assay type: ADME
Chain of Cytochrome P450 2D6 (P10635 whole entry): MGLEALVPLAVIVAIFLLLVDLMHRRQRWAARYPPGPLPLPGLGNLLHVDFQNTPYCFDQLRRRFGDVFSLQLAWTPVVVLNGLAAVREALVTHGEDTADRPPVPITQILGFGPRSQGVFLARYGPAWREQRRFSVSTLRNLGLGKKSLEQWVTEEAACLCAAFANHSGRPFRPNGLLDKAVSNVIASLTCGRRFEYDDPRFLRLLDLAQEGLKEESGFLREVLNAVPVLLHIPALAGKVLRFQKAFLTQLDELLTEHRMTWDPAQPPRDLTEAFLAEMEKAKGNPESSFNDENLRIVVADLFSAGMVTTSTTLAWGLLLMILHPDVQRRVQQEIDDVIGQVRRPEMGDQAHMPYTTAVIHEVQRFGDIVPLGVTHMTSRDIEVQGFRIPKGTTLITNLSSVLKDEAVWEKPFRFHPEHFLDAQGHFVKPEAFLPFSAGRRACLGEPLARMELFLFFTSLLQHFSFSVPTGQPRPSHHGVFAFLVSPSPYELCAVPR

Mus musculus [14] = test: In vivo inhibition of PI3K in mouse bearing human MDA-MB-361 cells assessed as inhibition of AKT phosphorylation at 50 mg/kg, po; assay type: functional, organism-based; set-up: dose 50 mg/kg

SMILES | IC50 (MDA-MB-361 [1]) [µM] | IC50 [2] [µM] | IC50 (PC-3) [µM] | IC50 [3] [µM] | IC50 [4] [µM] | also measured
O=C(Nc1ccc(-c2nc(N3CCOCC3)nc(N3C4CCC3COC4)n2)cc1)Nc1ccnnc1 | 0.036 | 0.028 | 0.047 | – | – | –
Cc1ccc(NC(=O)Nc2ccc(-c3nc(N4CCOCC4)nc(N4C5CCC4COC5)n3)cc2)cc1 | 0.167 | – | 0.301 | – | – | –
COc1ccc(NC(=O)Nc2ccc(-c3nc(N4CCOCC4)nc(N4C5CCC4COC5)n3)cc2)cc1OC | 0.402 | 0.0135 | 1.25 | 0.0935 | 0.358 | –
CN(C)c1ccc(NC(=O)Nc2ccc(-c3nc(N4CCOCC4)nc(N4C5CCC4COC5)n3)cc2)cc1 | > 1 | 0.0035 | > 1 | 0.0135 | 0.717 | –
O=C(Nc1ccc(-c2nc(N3CCOCC3)nc(N3C4CCC3COC4)n2)cc1)Nc1ccnc(Cl)c1 | 0.093 | 0.023 | 0.118 | – | – | –
N#Cc1ccc(NC(=O)Nc2ccc(-c3nc(N4CCOCC4)nc(N4C5CCC4COC5)n3)cc2)cc1 | 0.345 | – | 3.6 | 0.0033 | – | –
O=C(Nc1ccncc1)Nc1ccc(-c2nc(N3CCOCC3)nc(N3C4CCC3COC4)n2)cc1 [PKI-179] | 0.022 | – | 0.029 | 0.00042 | 0.074 | IC50 [5]: 0.011 µM; IC50 (Cytochrome P450 2C8): 3 µM; IC50 (Cytochrome P450 2C19): > 30 µM; inhibition (Mus musculus [6]): Active; IC50 (Cytochrome P450 3A4): > 30 µM; IC50 [7]: 0.077 µM; Activity (Mus musculus [8]): Non-toxic; IC50 (Cytochrome P450 2A6): > 30 µM; IC50 [9]: 0.014 µM; Activity (MDA-MB-361 [10]): Active; IC50 [11]: 0.024 µM; inhibition (Mus musculus [12]): Active; IC50 (Cytochrome P450 2B6): > 30 µM; inhibition (MDA-MB-361 [13]): Active; IC50 (Cytochrome P450 1A2): > 30 µM; IC50 (Cytochrome P450 2D6): > 30 µM; inhibition (Mus musculus [14]): Active
O=C(Nc1ccc(-c2nc(N3CCOCC3)nc(N3C4CCC3COC4)n2)cc1)Nc1ccc(-c2cccnc2)nc1 | 0.056 | 0.04 | 0.045 | 0.00345 | 0.044 | –
CN1CCN(Cc2ccc(NC(=O)Nc3ccc(-c4nc(N5CCOCC5)nc(N5C6CCC5COC6)n4)cc3)cc2)CC1 | 0.014 | – | 0.031 | – | – | –
O=C(Nc1ccncc1)Nc1ccc(-c2nc(N3CCOCC3)nc(N3C4COCC3[C@@H](O)C4)n2)cc1 (stereo partly drawn) | 0.032 | 0.004 | 0.08 | 0.0008 | 0.033 | –
CN1CCN(c2ccc(NC(=O)Nc3ccc(-c4nc(N5CCOCC5)nc(N5C6CCC5COC6)n4)cc3)cc2)CC1 | 0.035 | – | 0.04 | 0.0011 | – | –
O=C(Nc1ccccc1)Nc1ccc(-c2nc(N3CCOCC3)nc(N3C4CCC3COC4)n2)cc1 | 0.104 | 0.018 | 0.147 | 0.002 | 0.051 | –
O=C(Nc1ccc(-c2nc(N3CCOCC3)nc(N3C4CCC3COC4)n2)cc1)Nc1cccnc1 | 0.073 | – | 0.098 | – | – | –
O=C(Nc1ccc(F)cc1)Nc1ccc(-c2nc(N3CCOCC3)nc(N3C4CCC3COC4)n2)cc1 | 0.098 | – | 0.176 | 0.0019 | – | –
O=C(Nc1ccc(CCO)cc1)Nc1ccc(-c2nc(N3CCOCC3)nc(N3C4CCC3COC4)n2)cc1 | 0.022 | – | 0.03 | – | – | –
CN(C)CCOc1ccc(NC(=O)Nc2ccc(-c3nc(N4CCOCC4)nc(N4C5CCC4COC5)n3)cc2)cc1 | < 0.03 | 0.014 | < 0.03 | – | – | –
O=C(Nc1ccc(-c2nc(N3CCOCC3)nc(N3C4CCC3COC4)n2)cc1)Nc1cncnc1 | 0.11 | 0.084 | 0.138 | – | 0.24 | –
O=C(Nc1ccc(CO)cc1)Nc1ccc(-c2nc(N3CCOCC3)nc(N3C4CCC3COC4)n2)cc1 | 0.015 | – | 0.028 | – | – | –
